Reference: US8637504B2, “Sulfur-containing heterocyclic derivative having beta secretase inhibitory activity” (Shionogi & Co., Ltd., priority 2008, dated 2014)
Read-outs that look alike come from different tables or passages of the source.

Columns and labels:
Recombinant human BACE-1 = Recombinant human BACE-1 (Homo sapiens (Human), UniProt P56817); assay: Assay of β-secretase-inhibiting activity
Solubility test = type: physicochemical; settings: pH 1.2, simulated gastric fluid, kinetic from dmso stock; JP-I medium, turbidity after 4 hours
Experimental: A 2-fold dilution series (12 points) of a 10 mM solution of a test compound in DMSO was added to a medium (JP-I, JP-II) (2%), and solubility was assessed by 3 stages (High; >40 Medium; 3-40 μM, Low; <3 μM) from a turbidity after 4 hours (crystallization information).

[1] = Recombinant human BACE-1 7.4 nM, substrate peptide 18 nM, pH 5.0, 30° C. 3 hours

Recombinant human BACE-1, sequence (P56817 46-501): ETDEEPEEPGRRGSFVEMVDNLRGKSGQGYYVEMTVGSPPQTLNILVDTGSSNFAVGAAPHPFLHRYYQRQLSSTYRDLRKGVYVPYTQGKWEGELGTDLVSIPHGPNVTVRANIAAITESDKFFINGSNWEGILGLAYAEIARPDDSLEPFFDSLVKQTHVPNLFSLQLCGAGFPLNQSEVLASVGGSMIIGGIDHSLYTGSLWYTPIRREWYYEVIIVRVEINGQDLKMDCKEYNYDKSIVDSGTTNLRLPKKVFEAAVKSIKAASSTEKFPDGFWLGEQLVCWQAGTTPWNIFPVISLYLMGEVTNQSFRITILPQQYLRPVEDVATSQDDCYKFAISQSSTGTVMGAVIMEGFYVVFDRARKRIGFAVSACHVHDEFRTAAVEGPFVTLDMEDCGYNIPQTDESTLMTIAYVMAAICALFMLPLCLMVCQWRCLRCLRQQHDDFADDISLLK

Row | SMILES | IC50 (Recombinant human BACE-1) | IC50 (Recombinant human BACE-1; [1]) | further results
1 | COCCOc1cnc(C(=O)Nc2cccc(C3(C4CCCCC4)CSC(N)=N3)c2)cn1 (stereo not shown) [Compound 1] | ≤ 1000 nM |  | 
2 | COc1cnc(C(=O)Nc2cccc(C3(C4CCCCC4)CSC(N)=N3)c2)cn1 (stereo not shown) [Compound 2] |  |  | solubility at 4 h (Solubility test): > 40 µM
3 | NC1=NC(c2cccc(NC(=O)c3ccc(O)cn3)c2)(C2CCCCC2)CS1 (stereo not shown) [Compound 3] |  | 966 nM | 
4 | COc1ccc(C2(c3cccc(NC(=O)c4ncc(Cl)cc4Cl)c3)CSC(N)=N2)cc1 (stereo not shown) [Compound 4] | ≤ 1000 nM |  | 
5 | COc1ccc(C2(c3cccc(NC(=O)c4cnc(O)cn4)c3)CSC(N)=N2)cc1 (stereo not shown) [Compound 5] | ≤ 1000 nM |  | 
6 | NC1=NC(c2ccc(F)cc2)(c2cccc(NC(=O)c3ncc(Cl)cc3Cl)c2)CS1 (stereo not shown) [Compound 9] |  |  | solubility at 4 h (Solubility test): > 40 µM
7 | Cc1cnc(C(=O)Nc2ccc(F)c([C@]3(C)C=CSC(N)=N3)c2)cn1 [Compound 12] | ≤ 1000 nM |  | 
8 | COc1cnc(C(=O)Nc2ccc(F)c([C@]3(C)C=CSC(N)=N3)c2)cn1 [Compound 13] | ≤ 1000 nM |  | 
9 | C#CCOc1cnc(C(=O)Nc2ccc(F)c([C@]3(C)C=CSC(N)=N3)c2)cn1 [Compound 14] | ≤ 1000 nM |  | 
10 | Cc1nc(C(=O)Nc2ccc(F)c([C@]3(C)C=CSC(N)=N3)c2)co1 [Compound 15] | ≤ 1000 nM |  | 
11 | C[C@@]1(c2cc(NC(=O)c3ccc(Cl)cn3)ccc2F)C=CSC(N)=N1 [Compound 16] |  | 10 nM | 
12 | COc1cnc(C(=O)Nc2ccc(F)c([C@]3(C)C=C(c4ccccc4)SC(N)=N3)c2)cn1 [Compound 18] | ≤ 1000 nM |  | 
13 | Cc1cnc(C(=O)Nc2ccc(F)c([C@]3(C)C=C(c4ccccc4)SC(N)=N3)c2)cn1 [Compound 19] | ≤ 1000 nM |  | 
14 | CC(C)=C1C[C@@](C)(c2cc(NC(=O)c3cnc(C)cn3)ccc2F)N=C(N)S1 [Compound 20] |  | 95 nM | 
15 | COc1cnc(C(=O)Nc2ccc(F)c([C@]3(C)CC(=C(C)C)SC(N)=N3)c2)cn1 [Compound 21] |  | 19 nM | 
16 | COc1cnc(C(=O)Nc2ccc(F)c([C@@]3(C)N=C(N)SC=C3C)c2)cn1 [Compound 22] |  | 572 nM | 
17 | CC1=CSC(N)=N[C@]1(C)c1cc(NC(=O)c2cnc(C)cn2)ccc1F [Compound 23] |  | 5280 nM | solubility at 4 h (Solubility test): > 40 µM
18 | C#CCOc1cnc(C(=O)Nc2ccc(F)c([C@@]3(C)N=C(N)SC=C3C)c2)cn1 [Compound 24] |  | 54 nM | 
19 | COc1cnc(C(=O)Nc2ccc(F)c([C@]3(C)C=C(C)SC(N)=N3)c2)cn1 [Compound 25] | ≤ 1000 nM |  | 
20 | C#CCOc1cnc(C(=O)Nc2ccc(F)c([C@]3(C)C=C(C)SC(N)=N3)c2)cn1 [Compound 26] | ≤ 1000 nM |  | 
21 | CC1=C[C@@](C)(c2cc(NC(=O)c3ccc(C#N)cn3)ccc2F)N=C(N)S1 [Compound 27] | ≤ 1000 nM |  | 
22 | COc1cnc(C(=O)Nc2cccc([C@]3(C)C=CSC(N)=N3)c2)cn1 [Compound 28] | ≤ 1000 nM |  | 
23 | C#CCOc1cnc(C(=O)Nc2cccc([C@]3(C)C=CSC(N)=N3)c2)cn1 [Compound 29] | ≤ 1000 nM |  | 

Row | SMILES | IC50 (Recombinant human BACE-1) | IC50 (Recombinant human BACE-1; [1]) | further results
24 | C[C@@]1(c2cccc(NC(=O)c3ccc(C#N)cn3)c2)C=CSC(N)=N1 [Compound 30] | ≤ 1000 nM |  | 
25 | C[C@@]1(c2cc(NC(=O)c3cnc(OCCF)cn3)ccc2F)C=CSC(N)=N1 [Compound 31] | ≤ 1000 nM |  | 
26 | COCCOc1ccc(C(=O)Nc2ccc(F)c([C@]3(C)C=CSC(N)=N3)c2)nc1 [Compound 33] |  | 73 nM | 
27 | COCCOc1cnc(C(=O)Nc2ccc(F)c([C@]3(C)C=CSC(N)=N3)c2)cn1 [Compound 34] | ≤ 1000 nM |  | 
28 | C[C@@]1(c2cc(NC(=O)c3cnc(-c4ccc[nH]4)cn3)ccc2F)C=CSC(N)=N1 [Compound 36] | ≤ 1000 nM |  | 
29 | COc1cnc(C(=O)Nc2ccc(F)c([C@]3(C)C=CSC(N)=N3)c2)c(N)n1 [Compound 37] | ≤ 1000 nM |  | 
30 | C[C@@]1(c2cc(NC(=O)c3ccc(-c4ccc[nH]4)cn3)ccc2F)C=CSC(N)=N1 [Compound 39] |  | 97 nM | 
31 | Cc1cnc(C(=O)Nc2cccc(C3(C(F)(F)F)CCSC(N)=N3)c2)cn1 (stereo not shown) [Compound 44] |  | 2130 nM | 
32 | NC1=NC(c2cccc(NC(=O)c3ncc(Cl)cc3Cl)c2)(C(F)(F)F)CCS1 (stereo not shown) [Compound 45] | ≤ 1000 nM |  | 
33 | NC1=NC(c2cccc(NC(=O)c3cnc(OCCF)cn3)c2)(C(F)(F)F)CCS1 (stereo not shown) [Compound 46] |  | 611 nM | 
34 | N#Cc1ccc(C(=O)Nc2cccc(C3(C(F)(F)F)CCSC(N)=N3)c2)nc1 (stereo not shown) [Compound 47] |  | 91 nM | 
35 | COc1cnc(C(=O)Nc2cccc(C3(C(F)(F)F)CCSC(N)=N3)c2)cn1 (stereo not shown) [Compound 48] |  | 273 nM | 
36 | C#CCOc1cnc(C(=O)Nc2cccc(C3(C(F)(F)F)CCSC(N)=N3)c2)cn1 (stereo not shown) [Compound 49] | ≤ 1000 nM |  | 
37 | C=C1C[C@@](C)(c2cc(NC(=O)c3ccc(C#N)cn3)ccc2F)N=C(N)S1 [Compound 50] | ≤ 1000 nM |  | 
38 | C=C1C[C@@](C)(c2cc(NC(=O)c3cnc(OC)cn3)ccc2F)N=C(N)S1 [Compound 51] |  | 16 nM | 
39 | C=C1C[C@@](C)(c2cc(NC(=O)c3ncc(Cl)cc3Cl)ccc2F)N=C(N)S1 [Compound 52] | ≤ 1000 nM |  | 
40 | C=C1C[C@@](C)(c2cc(NC(=O)c3cnc(C)cn3)ccc2F)N=C(N)S1 [Compound 53] |  | 76 nM | 
41 | C[C@@]1(c2cc(NC(=O)c3ccc(C#N)cn3)ccc2F)C/C(=C/CO)SC(N)=N1 [Compound 54] | ≤ 1000 nM |  | 
42 | CC(C)(O)/C=C1/C[C@@](C)(c2cc(NC(=O)c3ccc(C#N)cn3)ccc2F)N=C(N)S1 [Compound 55] | ≤ 1000 nM |  | 
43 | NC1=NC(c2cccc(F)c2)(c2cccc(NC(=O)c3ncc(Cl)cc3Cl)c2)CS1 (stereo not shown) [Compound 56] |  | 352 nM | 
44 | NC1=NC(c2ccc(OC(F)(F)F)cc2)(c2cccc(NC(=O)c3ncc(Cl)cc3Cl)c2)CS1 (stereo not shown) [Compound 57] | ≤ 1000 nM |  | 
45 | COc1ccc(C2(c3cccc(NC(=O)c4ncc(Cl)cc4Cl)c3)CSC(N)=N2)cc1O (stereo not shown) [Compound 58] |  | 186 nM | 
46 | C[C@@]1(c2cc(NC(=O)c3ncc(C#N)cc3Cl)ccc2F)C=CSC(N)=N1 [Compound 59] |  | 19 nM | 

Row | SMILES | IC50 (Recombinant human BACE-1) | IC50 (Recombinant human BACE-1; [1]) | further results
47 | C[C@@]1(c2cc(NC(=O)c3cnc(OCc4ncc[nH]4)cn3)ccc2F)C=CSC(N)=N1 [Compound 61] |  | 169 nM | 
48 | C[C@@]1(c2cc(NC(=O)c3cnc(NS(C)(=O)=O)cn3)ccc2F)C=CSC(N)=N1 [Compound 66] |  | 296 nM | 
49 | C[C@@]1(c2cc(NC(=O)c3cnc(-n4ccnn4)cn3)ccc2F)C=CSC(N)=N1 [Compound 72] |  | 250 nM | 
50 | C[C@@]1(c2cc(NC(=O)c3cnc(-n4nccn4)cn3)ccc2F)C=CSC(N)=N1 [Compound 73] |  | 234 nM | 
51 | Cc1ncn(-c2cnc(C(=O)Nc3ccc(F)c([C@]4(C)C=CSC(N)=N4)c3)cn2)n1 [Compound 74] | ≤ 1000 nM |  | 
52 | Cc1ncnn1-c1cnc(C(=O)Nc2ccc(F)c([C@]3(C)C=CSC(N)=N3)c2)cn1 [Compound 75] |  | 697 nM | 
53 | C[C@@]1(c2cc(NC(=O)c3ccc(F)cn3)ccc2F)C=CSC(N)=N1 [Compound 76] |  | 62 nM | 
54 | C[C@@]1(c2cc(NC(=O)c3ncc(F)cc3F)ccc2F)C=CSC(N)=N1 [Compound 77] | ≤ 1000 nM |  | 
55 | C[C@@]1(c2cc(NC(=O)c3ncc(C#N)cn3)ccc2F)C=CSC(N)=N1 [Compound 78] | ≤ 1000 nM |  | 
56 | C[C@@]1(c2cc(NC(=O)c3ncc(Br)cn3)ccc2F)C=CSC(N)=N1 [Compound 79] |  | 24 nM | 
57 | C[C@@]1(c2cc(NC(=O)c3ncc(Cl)cn3)ccc2F)C=CSC(N)=N1 [Compound 80] | ≤ 1000 nM |  | 
58 | Cc1c(C(=O)Nc2ccc(F)c([C@]3(C)C=CSC(N)=N3)c2)oc2ccc(Br)cc12 [Compound 81] |  | 7 nM | 
59 | C[C@@]1(c2cc(NC(=O)c3ncc(C#N)cc3F)ccc2F)C=CSC(N)=N1 [Compound 84] | ≤ 1000 nM |  | 
60 | C/C(CO)=C1\C[C@@](C)(c2cc(NC(=O)c3ccc(C#N)cn3)ccc2F)N=C(N)S1 [Compound 85] | ≤ 1000 nM |  | 
61 | C/C(=C1\C[C@@](C)(c2cc(NC(=O)c3ccc(C#N)cn3)ccc2F)N=C(N)S1)C(F)F [Compound 94] | ≤ 1000 nM |  | 
62 | C=C1C[C@@](C)(c2cc(NC(=O)c3ccc(C#N)cn3)cnc2Cl)N=C(N)S1 [Compound 95] | ≤ 1000 nM |  | 
63 | C/C(CN1CCOCC1)=C1\C[C@@](C)(c2cc(NC(=O)c3ccc(C#N)cn3)ccc2F)N=C(N)S1 [Compound 96] | ≤ 1000 nM |  | 
64 | C/C(CN1CCCC1)=C1\C[C@@](C)(c2cc(NC(=O)c3ccc(C#N)cn3)ccc2F)N=C(N)S1 [Compound 98] | ≤ 1000 nM |  | 
65 | C/C(CN(C)C)=C1\C[C@@](C)(c2cc(NC(=O)c3ccc(C#N)cn3)ccc2F)N=C(N)S1 [Compound 100] | ≤ 1000 nM |  | 
66 | C=C1C[C@@](C)(c2cc(NC(=O)c3ncc(C#N)cc3F)cnc2Cl)N=C(N)S1 [Compound 101] |  | 22 nM | 
67 | C=C1C[C@@](C)(c2cc(NC(=O)c3ccc(C#N)cn3)cnc2C)N=C(N)S1 [Compound 103] | ≤ 1000 nM |  | 
68 | C=C1C[C@@](C)(c2cncc(NC(=O)c3ccc(C#N)cn3)c2)N=C(N)S1 [Compound 105] | ≤ 1000 nM |  | 
69 | C=C1C[C@@](C)(c2cncc(NC(=O)c3ccc(C(F)(F)F)cn3)c2)N=C(N)S1 [Compound 107] | ≤ 1000 nM |  | 
